Test results: ChEMBL document CHEMBL3244039, “Antiviral activity of some beta-diketones. 2. Aryloxy alkyl diketones. In vitro activity against both RNA and DNA viruses” (1977)
Converted amounts (≈) assume the structure as drawn. The source made the active and inactive calls. No cut-off for these calls is given here.

How the values were obtained:
[1] = test system: Human alphaherpesvirus 2; experiment: Antiviral activity against Herpes simplex virus 2 assessed as inhibition of virus-induced cytopathic effect after 72 hrs by two-fold dilution method; format: functional; details: Human alphaherpesvirus 2, 72 h
[2] = test system: rhinovirus B14; experiment: Antiviral activity against Human rhinovirus 14 assessed as inhibition of virus-induced cytopathic effect at 37 degC after 72 hrs by two-fold dilution method; format: functional; details: Rhinovirus B
[3] = Antiviral activity against Human rhinovirus 17 assessed as inhibition of virus-induced cytopathic effect at 37 degC after 72 hrs by two-fold dilution method; format: functional, Human rhinovirus B17; details: Rhinovirus B
[4] = test system: unidentified influenza virus; experiment: Antiviral activity against Parainfluenza virus assessed as inhibition of virus-induced cytopathic effect at 37 degC after 72 hrs by two-fold dilution method; format: functional
[5] = test system: Respiratory syncytial virus; experiment: Antiviral activity against Respiratory syncytial virus assessed as inhibition of virus-induced cytopathic effect at 37 degC after 72 hrs by two-fold dilution method; format: functional; details: human respiratory syncytial virus
[6] = test system: Human alphaherpesvirus 1; experiment: Antiviral activity against Herpes simplex virus 1 assessed as inhibition of virus-induced cytopathic effect at 37 degC after 72 hrs by two-fold dilution method; format: functional; details: Human alphaherpesvirus 1, 72 h
[7] = test system: Human alphaherpesvirus 1; experiment: Antiviral activity against Herpes simplex virus 1 Sheely assessed as inhibition of virus-induced cytopathic effect at 37 degC after 72 hrs by two-fold dilution method; format: functional; details: Human alphaherpesvirus 1, Sheely
[8] = test system: Human alphaherpesvirus 2; experiment: Antiviral activity against Herpes simplex virus 2 Curtis assessed as inhibition of virus-induced cytopathic effect at 37 degC after 72 hrs by two-fold dilution method; format: functional; details: Human alphaherpesvirus 2, Curtis
[9] = test system: rhinovirus A2; experiment: Antiviral activity against Human rhinovirus 2 assessed as inhibition of virus-induced cytopathic effect at 37 degC after 72 hrs by two-fold dilution method; format: functional; details: Rhinovirus A
[10] = test system: Influenza A virus; experiment: Antiviral activity against Influenza A2 virus Jap 170 infected in ferret trachea assessed as reduction in viral yield at 200 ug/ml after 3 days followed by compound-washout measured after 24 hrs by chick embryo-based hemagglutination titration method relative to control v; format: functional; parameters: scale not given: the % may be the effect or the level left
[11] = test system: Influenza A virus; experiment: Antiviral activity against Influenza A2 virus Jap 170 infected in ferret trachea assessed as reduction in viral yield at 400 ug/ml after 3 days followed by compound-washout measured after 24 hrs by chick embryo-based hemagglutination titration method relative to control; format: functional; parameters: scale not given: the % may be the effect or the level left
[12] = test system: Equine rhinovirus; experiment: Antiviral activity against Equine rhinovirus assessed as inhibition of virus-induced cytopathic effect after 48 hrs by two-fold dilution method
[13] = test system: Equine rhinovirus; experiment: Antiviral activity against Equine rhinovirus infected in rhesus monkey trachea assessed as reduction in viral yield at 200 ug/ml after 3 days followed by compound-washout measured after 24 hrs by human CATR cell-based titration method relative to control; parameters: scale not given: the % may be the effect or the level left
[14] = test system: Equine rhinovirus; experiment: Antiviral activity against Equine rhinovirus infected in rhesus monkey trachea assessed as reduction in viral yield at 400 ug/ml after 3 days followed by compound-washout measured after 24 hrs by human CATR cell-based titration method relative to control; parameters: scale not given: the % may be the effect or the level left
[15] = test system: Equine rhinovirus; experiment: Antiviral activity against Equine rhinovirus infected in rhesus monkey trachea assessed as reduction in viral yield at 100 ug/ml after 3 days followed by compound-washout measured after 24 hrs by human CATR cell-based titration method relative to control v; parameters: scale not given: the % may be the effect or the level left
[16] = test system: Human alphaherpesvirus 2; experiment: Antiviral activity against Herpes simplex virus 2 assessed as inhibition of virus-induced cytopathic effect at 50 ug/ml after 72 hrs by two-fold dilution method; format: functional, organism-based

Compound | MIC [1] [µg/mL] | MIC [12] [µg/mL] | inhibition [16] | further results
CCC(=O)C(CCCCCCOc1ccc(OC)cc1Cl)C(=O)CC [ARILDONE] | 6 (≈ 16.3 µM) | 1.5 (≈ 4.07 µM) |  | MIC [2]: 1.5 µg/mL (≈ 4.07 µM); MIC [3]: 3 µg/mL (≈ 8.13 µM); MIC [4]: 1.5 µg/mL (≈ 4.07 µM); MIC [5]: 3 µg/mL (≈ 8.13 µM); MIC [6]: 6 µg/mL (≈ 16.3 µM); MIC [7]: 6 µg/mL (≈ 16.3 µM); MIC [8]: 6 µg/mL (≈ 16.3 µM); MIC [9]: 0.7 µg/mL (≈ 1.9 µM); Activity [10]: 90%; Activity [11]: 99.9%; Activity [13]: 98%; Activity [14]: 99.5%; Activity [15]: 70%
CCC(=O)C(CCCCCOc1ccc(OC)cc1Cl)C(=O)CC | 6 (≈ 16.9 µM) | 6 (≈ 16.9 µM) |  | 
CCC(=O)C(CCCCCCOc1cccc([N+](=O)[O-])c1)C(=O)CC |  | 3 (≈ 8.59 µM) | inactive | 
CCC(=O)C(CCCCCCOc1ccc(O)cc1)C(=O)CC | 3 (≈ 9.36 µM) | 12 (≈ 37.4 µM) |  | 
Nc1ncnc2c1ncn2[C@@H]1O[C@H](CO)[C@@H](O)[C@@H]1O [VIDARABINE] |  |  |  | MIC [7]: 12 µg/mL (≈ 44.9 µM); MIC [8]: 12 µg/mL (≈ 44.9 µM)
CCC(=O)C(CCCCCCOc1ccccc1C(F)(F)F)C(=O)CC | 6 (≈ 16.1 µM) | 6 (≈ 16.1 µM) |  | 
CCC(=O)C(CCCCCCOc1ccc(OC)cc1[N+](=O)[O-])C(=O)CC | 6 (≈ 15.8 µM) | 3 (≈ 7.91 µM) |  | 
CCC(=O)C(CCCCOc1ccc(OC)cc1Cl)C(=O)CC |  |  | inactive | 
CCC(=O)C(CCCCCCOc1ccc(F)cc1)C(=O)CC | 3 (≈ 9.3 µM) | 3 (≈ 9.3 µM) |  | 
CCC(=O)C(CCCCCCCCOc1ccc2c(c1)OCO2)C(=O)CC |  |  | inactive | 
CCC(=O)C(CCCCCCOc1ccc(OC(=O)c2ccc(C)cc2)cc1)C(=O)CC |  | 12 (≈ 27.4 µM) | inactive | 
CCC(=O)C(CCCCCCCOc1ccc2c(c1)OCO2)C(=O)CC |  | 6 (≈ 16.6 µM) | inactive | 
CCC(=O)C(CCCCCCOc1cccc(I)c1)C(=O)CC | 6 (≈ 13.9 µM) | 6 (≈ 13.9 µM) |  | 
CCC(=O)C(CCCCCCOc1c(I)cc(I)cc1I)C(=O)CC | 6 (≈ 8.8 µM) | 12 (≈ 17.6 µM) |  | 
CCC(=O)C(CCCCCCOc1c(F)c(F)c(F)c(F)c1F)C(=O)CC | 12 (≈ 30.4 µM) |  |  | 
CCC(=O)C(CCCCCCOc1cc(Cl)cc(OC)c1)C(=O)CC | 12 (≈ 32.5 µM) | 6 (≈ 16.3 µM) |  | 

Compound | MIC [1] [µg/mL] | MIC [12] [µg/mL] | inhibition [16] | further results
CCC(=O)C(CCCCCCOc1ccc(OCc2ccccc2)cc1Cl)C(=O)CC | 3 (≈ 6.74 µM) | 3 (≈ 6.74 µM) |  | 
CCC(=O)C(CCCCCCOc1cccc(C(F)(F)F)c1)C(=O)CC |  |  | inactive | 
CCC(=O)C(CCCCCCOc1ccccc1)C(=O)CC | 1.5 (≈ 4.93 µM) | 6 (≈ 19.7 µM) |  | 
CCC(=O)C(CCCCCCOc1ccc(Br)cc1Cl)C(=O)CC | 3 (≈ 7.18 µM) | 3 (≈ 7.18 µM) |  | 
CCC(=O)C(CCCCCCOc1ccc(OC(C)=O)cc1Cl)C(=O)CC |  | 12 (≈ 30.2 µM) | inactive | 
CCC(=O)C(CCCOc1ccc2c(c1)OCO2)C(=O)CC |  |  | inactive | 
CCC(=O)C(CCCCCCOc1ccccc1F)C(=O)CC | 12 (≈ 37.2 µM) | 3 (≈ 9.3 µM) |  | 
CCC(=O)C(CCCCCCOc1ccc(OCCN(CC)CC)cc1)C(=O)CC |  | 25 (≈ 59.6 µM) | inactive | 
CCC(=O)C(CCCCCCOc1ccc(OCCO)cc1Cl)C(=O)CC | 1.5 (≈ 3.76 µM) | 3 (≈ 7.52 µM) |  | 
CCC(=O)C(CCOCCOc1ccc(OC)cc1Cl)C(=O)CC | 12 (≈ 33.6 µM) | 25 (≈ 70.1 µM) |  | 
CCC(=O)C(CCCCCCOc1ccc(OCc2ccccc2)cc1)C(=O)CC | 1.5 (≈ 3.65 µM) | 1.5 (≈ 3.65 µM) |  | 
CCOC(=O)c1ccc(OCCCCCCC(C(=O)CC)C(=O)CC)cc1 | 3 (≈ 7.97 µM) | 6 (≈ 15.9 µM) |  | 
CCC(=O)C(CCCCCCOc1ccc(S(N)(=O)=O)cc1)C(=O)CC | 12 (≈ 31.3 µM) |  |  | 
CCC(=O)C(CCCCCCCCCOc1ccc(OC)cc1Cl)C(=O)CC | 12 (≈ 29.2 µM) | 6 (≈ 14.6 µM) |  | 
CCC(=O)C(CCCCOc1ccc2c(c1)OCO2)C(=O)CC |  | 12 (≈ 37.5 µM) | inactive | 
CCC(=O)C(CCCCCCOc1ccc(O)cc1Cl)C(=O)CC | 6 (≈ 16.9 µM) |  |  | 
